The values that follow come from ChEMBL document CHEMBL5260859, “Discovery and structure-activity relationship study of 2-piperazinyl-benzothiazole derivatives as potent and selective PPARδ agonists” (Bioorg Med Chem, 2023).

Structures are written as SMILES.

The target in assay [1] is T1, Peroxisome proliferator-activated receptor delta (Homo sapiens, UniProt Q03181).
T1 sequence (Q03181 whole entry): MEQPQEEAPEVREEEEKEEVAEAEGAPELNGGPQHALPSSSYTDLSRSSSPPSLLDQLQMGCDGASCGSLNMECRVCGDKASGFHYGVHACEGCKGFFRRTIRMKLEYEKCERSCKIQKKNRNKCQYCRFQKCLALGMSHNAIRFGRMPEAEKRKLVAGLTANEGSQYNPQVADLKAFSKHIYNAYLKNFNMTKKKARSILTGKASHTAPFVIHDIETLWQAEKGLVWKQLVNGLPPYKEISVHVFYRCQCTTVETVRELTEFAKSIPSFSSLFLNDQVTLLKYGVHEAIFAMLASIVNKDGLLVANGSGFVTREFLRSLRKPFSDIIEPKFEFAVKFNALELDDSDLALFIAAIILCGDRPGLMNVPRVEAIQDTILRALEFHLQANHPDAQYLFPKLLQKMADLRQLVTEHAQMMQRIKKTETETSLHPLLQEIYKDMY
Put plainly: Agonist activity at Gal4-fused human PPAR-delta ligand binding domain expressed in CHO-K1 cells assessed as receptor transactivation incubated for 24 to 48 hrs by luciferase reporter gene assay. Format: cell-based. In general terms: A reporter such as luciferase makes a cellular process visible.

The target of assay [2] is T2, Peroxisome proliferator-activated receptor delta (Homo sapiens) (UniProt Q03181).
T2 sequence (whole entry): T1 sequence (Q03181 whole entry)
Put plainly: Agonist activity at Gal4-fused human PPAR-delta ligand binding domain expressed in CHO-K1 cells assessed as receptor transactivation incubated for 24 to 48 hrs by luciferase reporter gene assay relative to control. Type of assay: cell-based. Particulars: time lower 24.0 hrs, time upper […].

Assay [3] concerns the target T3, Peroxisome proliferator-activated receptor delta (Mus musculus, UniProt P35396).
T3 sequence (P35396 whole entry): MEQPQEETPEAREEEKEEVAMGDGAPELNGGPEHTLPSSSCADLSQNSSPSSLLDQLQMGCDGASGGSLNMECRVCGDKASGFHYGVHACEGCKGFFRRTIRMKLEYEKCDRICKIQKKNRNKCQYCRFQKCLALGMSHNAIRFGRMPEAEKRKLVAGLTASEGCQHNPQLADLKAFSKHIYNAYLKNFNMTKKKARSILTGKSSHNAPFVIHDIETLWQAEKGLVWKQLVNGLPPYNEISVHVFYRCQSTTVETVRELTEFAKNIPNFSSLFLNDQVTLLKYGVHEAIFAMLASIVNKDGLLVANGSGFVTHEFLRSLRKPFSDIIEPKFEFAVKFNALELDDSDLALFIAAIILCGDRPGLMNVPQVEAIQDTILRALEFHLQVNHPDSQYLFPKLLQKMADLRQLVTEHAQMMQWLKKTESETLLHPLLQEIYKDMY
Put plainly: Agonist activity at Gal4-fused mouse PPAR-delta ligand binding domain expressed in CHO-K1 cells assessed as receptor transactivation incubated for 24 to 48 hrs by luciferase reporter gene assay. Type of assay: cell-based.

Assay [4] addresses T4, Peroxisome proliferator-activated receptor delta (Mus musculus) (UniProt P35396).
T4 sequence (whole entry): T3 sequence (P35396 whole entry)
As to the kind of experiment: Agonist activity at Gal4-fused mouse PPAR-delta ligand binding domain expressed in CHO-K1 cells assessed as receptor transactivation incubated for 24 to 48 hrs by luciferase reporter gene assay relative to control. Format: cell-based. Particulars: time lower 24.0 hrs, time upper […].

For assay [5], the target named is T5, Peroxisome proliferator-activated receptor alpha (Mus musculus, UniProt P23204).
T5 sequence (P23204 whole entry): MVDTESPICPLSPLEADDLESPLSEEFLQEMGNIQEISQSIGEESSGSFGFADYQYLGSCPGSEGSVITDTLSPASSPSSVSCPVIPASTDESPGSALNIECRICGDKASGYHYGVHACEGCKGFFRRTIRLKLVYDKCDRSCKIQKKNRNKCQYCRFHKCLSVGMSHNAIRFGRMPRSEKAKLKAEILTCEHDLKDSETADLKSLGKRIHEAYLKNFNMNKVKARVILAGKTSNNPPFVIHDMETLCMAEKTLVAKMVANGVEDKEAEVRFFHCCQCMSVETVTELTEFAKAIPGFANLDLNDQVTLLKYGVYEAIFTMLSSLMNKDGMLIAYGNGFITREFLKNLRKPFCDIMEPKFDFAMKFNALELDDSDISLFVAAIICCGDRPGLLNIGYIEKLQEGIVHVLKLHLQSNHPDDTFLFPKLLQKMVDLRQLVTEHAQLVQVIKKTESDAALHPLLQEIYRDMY
Put plainly: Agonist activity at Gal4-fused mouse PPAR-alpha ligand binding domain expressed in CHO-K1 cells assessed as receptor transactivation incubated for 24 to 48 hrs by luciferase reporter gene assay. Type of assay: cell-based.

Assay [6] addresses T6, Peroxisome proliferator-activated receptor alpha (Mus musculus) (UniProt P23204).
T6 sequence (whole entry): T5 sequence (P23204 whole entry)
As to the kind of experiment: Agonist activity at Gal4-fused mouse PPAR-alpha ligand binding domain expressed in CHO-K1 cells assessed as receptor transactivation incubated for 24 to 48 hrs by luciferase reporter gene assay relative to control. Format: cell-based. The following applies: time lower 24.0 hrs, time upper […].

For assay [7], the target named is T7, Peroxisome proliferator-activated receptor gamma (Mus musculus, UniProt P37238).
T7 sequence (P37238 whole entry): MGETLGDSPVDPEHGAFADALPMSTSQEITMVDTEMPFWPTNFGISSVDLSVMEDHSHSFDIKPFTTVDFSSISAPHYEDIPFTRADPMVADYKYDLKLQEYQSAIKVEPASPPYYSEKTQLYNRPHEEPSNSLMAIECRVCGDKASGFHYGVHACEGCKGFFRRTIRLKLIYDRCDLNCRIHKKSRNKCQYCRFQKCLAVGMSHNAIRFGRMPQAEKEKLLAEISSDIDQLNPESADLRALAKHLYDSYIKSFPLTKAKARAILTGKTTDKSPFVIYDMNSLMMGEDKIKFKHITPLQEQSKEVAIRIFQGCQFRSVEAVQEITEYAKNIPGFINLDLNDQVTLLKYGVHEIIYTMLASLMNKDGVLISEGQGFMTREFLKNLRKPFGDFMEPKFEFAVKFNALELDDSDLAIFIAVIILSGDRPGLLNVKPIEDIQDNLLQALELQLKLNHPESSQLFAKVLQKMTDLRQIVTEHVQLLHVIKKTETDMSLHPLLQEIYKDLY
Put plainly: Agonist activity at Gal4-fused mouse PPAR-gamma ligand binding domain expressed in CHO-K1 cells assessed as receptor transactivation incubated for 24 to 48 hrs by luciferase reporter gene assay. Type of assay: cell-based.

For assay [8], the system named is Mus musculus. Put plainly: Antihypercholesterolemic activity against hApoB100/hCETP-dTg hypercholesterolemic mouse model assessed as serum HDL-C level at 3 mg/kg, po administered once daily for 8 days. Format: functional. The following applies: time 8 day.
For assay [9], the system named is Mus musculus. Put plainly: Antihypercholesterolemic activity against hApoB100/hCETP-dTg hypercholesterolemic mouse model assessed as serum non-HDL-C level at 3 mg/kg, po administered once daily for 8 days. Particulars: time 8 day. Format: functional.
Assay [10] addresses T8, Peroxisome proliferator-activated receptor alpha (Homo sapiens) (UniProt Q07869).
T8 sequence (whole entry): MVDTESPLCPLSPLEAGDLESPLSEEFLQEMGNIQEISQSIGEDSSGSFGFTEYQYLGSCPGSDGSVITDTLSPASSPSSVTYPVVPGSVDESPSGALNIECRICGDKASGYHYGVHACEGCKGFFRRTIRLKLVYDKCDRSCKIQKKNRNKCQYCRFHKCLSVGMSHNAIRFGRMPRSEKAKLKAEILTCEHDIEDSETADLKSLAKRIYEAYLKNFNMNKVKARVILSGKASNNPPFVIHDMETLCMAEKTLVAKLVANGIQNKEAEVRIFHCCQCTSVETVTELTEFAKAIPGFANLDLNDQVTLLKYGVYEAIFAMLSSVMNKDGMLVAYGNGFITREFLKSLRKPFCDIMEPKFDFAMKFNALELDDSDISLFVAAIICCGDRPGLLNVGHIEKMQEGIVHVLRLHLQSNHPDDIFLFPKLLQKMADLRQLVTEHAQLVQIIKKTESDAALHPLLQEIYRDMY
As to the kind of experiment: Agonist activity at Gal4-fused human PPAR-alpha ligand binding domain expressed in CHO-K1 cells assessed as receptor transactivation incubated for 24 to 48 hrs by luciferase reporter gene assay relative to control. Type of assay: cell-based. The following applies: time lower 24.0 hrs, time upper […].

With `Cc1ccc(CC(=O)O)cc1OCCN1CCN(c2nc3ccc(Cl)cc3s2)CC1`, the EC50 in assay [1] is 33 nM; in [3], 110 nM. Also, the figures for the Emax in assay [2] and in [4] were 14.4% and 25.3%, respectively.

`CC[C@H]1CN(c2nc3ccc(Cl)cc3s2)CCC1CCOc1cc(CC(=O)O)ccc1Cl` (some centres not stated): the EC50 in assay [3] stood at 5.8 nM; in [5], 3400 nM; in assay [7], 390 nM. For the same compound, the Emax in [4] came to 31.3%; in assay [6] it was 6.1%.

For the compound `CC[C@H]1CN(Cc2cc(C)cc(CC(=O)O)c2)CCN1c1nc2ccc(C(F)(F)F)cc2s1`, the Emax in assay [4] is 30.8%; in assay [6] it was 9.1%. The results for the EC50 in assay [5] and in [7] were 3800 nM and 670 nM, respectively.

With `C[C@@H]1CN(c2nc3ccc(Cl)cc3s2)CCN1CCOc1cc(CC(=O)O)ccc1Cl`, the figures for the EC50 in [1], in assay [3] and in assay [5] were 16 nM, 47 nM and 3200 nM, respectively. Moreover, the figures for the Emax in [2], in [4] and in assay [6] were 19.8%, 28.3% and 21%, respectively.

On to `Cc1cc(CC(=O)O)cc(CN2CCN(c3nc4ccc(C(F)(F)F)cc4s3)[C@H](C(C)C)C2)c1`, for which the figures for the EC50 in assay [1], in [3] and in assay [7] were 3.7 nM, 7.5 nM and 230 nM, respectively. Further, the Emax in [2] is 13.1%; in [4], 14.6%; in assay [6], 1.3%.

Consider `Cc1cc(SCc2sc(-c3ccc(C(F)(F)F)cc3)nc2C)ccc1OCC(=O)O` [GW501516], for which the Activity with Mus musculus [8] is listed as 141%; in the assay on Mus musculus [9], 67%.

Turning to `C[C@H]1CN(c2nc3ccc(Cl)cc3s2)CCN1CCOc1cc(CC(=O)O)ccc1Cl`, the EC50 in assay [1] came out at 5 nM; in assay [3] it was 12 nM; in assay [5] it was 7100 nM. Moreover, the values for the Emax in assay [2], in assay [4] and in assay [6] were 15.5%, 23.2% and 8.3%, respectively.

In the case of `C[C@@H]1CN(CCOc2cc(CC(=O)O)ccc2Cl)CCN1c1nc2ccc(Cl)cc2s1`, the EC50 in assay [1] was determined as 7.9 nM; in [3] it was 46 nM; in assay [5] it was 3900 nM; in assay [7], 4.1 nM. The Emax in assay [2] was found to be 21.9%; in [4] it was 27.6%; in assay [6], 12.5%.

For `CC[C@@H]1CN(Cc2cc(C)cc(CC(=O)O)c2)CCN1c1nc2ccc(C(F)(F)F)cc2s1`, the Emax in assay [4] stood at 33.1%; in assay [6] it was 2.8%. For the same compound, the EC50 in [5] is 8500 nM; in assay [7], 40 nM.

As for `Cc1cc(CC(=O)O)cc(CN2CCN(c3nc4ccc(C(F)(F)F)cc4s3)C[C@@H]2C)c1`, the results for the EC50 in [1] and in [3] were 6.9 nM and 28 nM, respectively. The Emax came out at 19.5% in assay [2], 22.1% in assay [4] and 1.1% in assay [6].

With `Cc1ccc(CC(=O)O)cc1OCCN1CCN(c2nc3ccc(Cl)cc3s2)C[C@@H]1C`, the EC50 in assay [3] was 25 nM; in assay [5] it was 4900 nM; in [7], 500 nM. Moreover, the Emax in assay [4] came out at 21.7%; in assay [6], 6.9%.

As to `C[C@H]1CN(CCOc2cc(CC(=O)O)ccc2Cl)CCN1c1nc2ccc(Cl)cc2s1`, the EC50 in [1] stood at 17 nM; in assay [3], 27 nM; in [5], 13000 nM; in assay [7], 150 nM. Besides, the figures for the Emax in assay [2], in assay [4] and in [6] were 23.9%, 27.9% and 16.7%, respectively.

Take `Cc1cc(CC(=O)O)cc(CN2CCN(c3nc4ccc(C(F)(F)F)cc4s3)C[C@H]2C)c1`: the EC50 in assay [1] worked out at 9.9 nM; in [3], 34 nM; in assay [5], 8000 nM. Besides, the Emax in [2] was found to be 15.5%; in [4], 22.1%; in [6] it was 19%.

Turning to `Cc1cc(CC(=O)O)cc(CN2CCN(c3nc4ccc(C(F)(F)F)cc4s3)CC2)c1`, the Emax turned out to be 19% in assay [4] and 6.6% in assay [6]. For the same compound, the EC50 turned out to be 3000 nM in [5] and 3300 nM in assay [7].

As to `CC1CN(c2nc3ccc(Cl)cc3s2)CCC1CCOc1cc(CC(=O)O)ccc1Cl` (configuration not stated), the values for the Emax in assay [10], in assay [4] and in assay [6] were 3%, 28.7% and 14.2%, respectively. Moreover, the 50% effective concentration (EC50) in assay [3] came to 47 nM; in [5], 3600 nM; in assay [7] it was 1000 nM.

In general, EC50 refers to the concentration giving half of the maximal effect.
